From patent US20250049036A1 (priority 2021, published 2025)

Key:
Venturia Inequalis = experiment: Venturia inequalis (VENTIN) spore growth inhibition in liquid medium, 96-well microtiter plate, OD 600; type: cell-based; conditions: spore suspension in PDB liquid medium, 18° C., 15-18 days, OD at 600, read-out: control compared to the untreated check
In short: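 Venturia inequalis spores (10^5 spores/ml suspension) were grown in potato dextrose broth with test compounds dissolved in DMSO, mixing equal volumes of compound solution and spore suspension. Plates were incubated at 18 °C for 15–18 days. Growth was read as OD600 and converted to percent inhibition.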

Phytophthora infestans = experiment: whole plant or invertebrate; type: in vivo, Phytophthora infestans on tomato; conditions: in Solanum lycopersicum, read-out: control (efficacy, disease severity) compared to the untreated check
Phakopsora pachyrhizi = Phakopsora pachyrhizi test on soybean, preventive, greenhouse; type: in vivo; conditions: preventive spray on soybean, inoculated one day after treatment, read-out: control (efficacy, disease severity) compared to the untreated check
In short: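 Greenhouse-grown young soybean plants were sprayed with compound (2% DMSO/acetone, emulsifier in water) at the stated rate. One day later they were inoculated with 2×10^5 P. pachyrhizi inoculum and held at 22-24 °C, 80-90% relative humidity for disease development.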

Pyricularia oryzae = experiment: microbe, parasite or virus in culture; type: cell-based; conditions: 168 h, read-out: control compared to the untreated check
Fusarium culmorum = Fusarium culmorum test on wheat, preventive, greenhouse; type: in vivo; conditions: preventive spray on wheat, inoculated one day after treatment, read-out: control (efficacy, disease severity) compared to the untreated check
Procedure: The respective compound was dissolved in 2% dimethyl sulfoxide/acetone and then mixed with water containing an emulsifier to a calibrated spray volume of 30 mL. Each spray solution was poured into a spray bottle for further application.
(§1) To test the preventive activity of a compound, healthy young wheat plants, raised in the greenhouse, were sprayed with the active compound preparation at the stated application rate inside the spray cabinets using hollow cone nozzles. One day after the treatment, the plants were inoculated with a spore suspension containing 2×10^6 Fusarium culmorum inoculum. The inoculated plants were then kept in a greenhouse chamber at 24° C. temperature and 80-90% relative humidity for disease expression.
(§2) A visual assessment of the compound's performance was carried out by rating the disease severity (0 100% scale) on treated plants 3, 7, 10 and 15 days after application. Efficacy (% control) of the compound was calculated by comparing the disease rating in the treatment with the one of the untreated control. The treated plants were also assessed for plant damage by recording symptoms like necrosis, chlorosis and stunting.

Corynespora cassiicola = Corynespora cassiicola test on tomato, preventive, greenhouse; type: in vivo; conditions: 500 ppm; preventive spray on tomato, inoculated one day after treatment
Procedure: The respective compound was dissolved in 2% dimethyl sulfoxide/acetone and then mixed with water containing an emulsifier to the calibrated spray volume of 30 mL. Each spray solution was poured into a spray bottle for further application.
as §1, with “tomato” for “wheat”, “after” for “after the”, “2.6×10^6 Corynespora cassiicola” for “2×10^6 Fusarium culmorum”, “22-24°” for “24°”, “90-95%” for “80-90%”
as §2

CC(c1ccccc1F)C(C)(C)NC(=O)c1cnc2c(c1)c(Cl)cn2C (stereo not drawn) [Compound 64, 3-chloro-N-(3-(2-fluorophenyl)-2-methylbutan-2-yl)-1-methyl-1H-pyrrolo[2,3-b]pyridine-5-carboxamide]
≥ 70%: inhibition of growth at 300 ppm (Venturia Inequalis) | pest or weed control at 500 ppm (Phytophthora infestans) | pest or weed control at 500 ppm (Phakopsora pachyrhizi) | inhibition of growth at 300 ppm (Pyricularia oryzae) | pest or weed control at 500 ppm (Fusarium culmorum) | control (efficacy, disease severity) compared to the untreated check (Corynespora cassiicola)
